The record followed here is patent publication US10709709B2, “Substituted carbonucleoside derivatives useful as anticancer agents” (Pfizer Inc., priority 2016, dated 2020).

What is called pIC50 is the IC50 on a negative log10 scale, so that one unit is a factor of ten. A higher pIC50 goes with a small IC50.

pIC50: −log10 of the molar value. Where only a bound is given, the exact number is not on record here.

The target in this experiment is PRMT5/MEP50 protein complex (Homo sapiens (Human), UniProt O14744). Kind of experiment: PRMT5 biochemical assay (3H-SAM methylation of H4(1-21) peptide, filter plate scintillation). The following applies: 10 nM PRMT5/MEP50 complex, 200 nM H4(1-21) peptide, 1 uM SAM, 25 minute incubation at room temperature. The procedure:
Biochemical Assay Methods
Compounds were solubilized in DMSO and serially diluted, using 3-fold dilutions, into 100% DMSO at a concentration 50-fold greater than the desired assay concentration. Following dilution, 1 ul was added to an empty 96-well microtiter plate. PRMT5/MEP50 protein complex was combined with H4(1-21) peptide ([…]) in PRMT5 assay buffer (50 mM Tris pH 8.5, 50 mM NaCl, 5 mM MgCl2, 1 mM EDTA, 1 mM TCEP) and 44 ul was added to the microtiter plate containing compound. S-Adenosyl-L-methionine (SAM) was prepared by combining ^3H labelled SAM with unlabelled SAM in PRMT5 assay buffer such that the final SAM concentration was 10 uM and the specific activity was 0.2 uCi/ul. The reaction was initiated by adding 5 ul of SAM stock to the microtiter plate. The final reaction conditions were 10 nM PRMT5/MEP50 complex, 200 nM peptide and 1 uM SAM. Following a 25 minute incubation at room temperature, the reaction was stopped with the addition of 100 uL of 20% TCA. The 3H-peptide product was captured using a 96-well filter plate (MSIPN4B, Millipore) and washed 5 times with PBS buffer. Scintillation fluid (100 ul) was added to the dried filter plate and counted in a liquid scintillation counter. IC50 values were determined by fitting the data to the standard 4-parameter dose response equation using Pfizer proprietary software.
Results for the biochemical assay of examples are summarized in Table 1, shown as IC50 values in μM.

PRMT5/MEP50 protein complex, sequence (O14744 other isoform, or with tags, fused parts or gaps): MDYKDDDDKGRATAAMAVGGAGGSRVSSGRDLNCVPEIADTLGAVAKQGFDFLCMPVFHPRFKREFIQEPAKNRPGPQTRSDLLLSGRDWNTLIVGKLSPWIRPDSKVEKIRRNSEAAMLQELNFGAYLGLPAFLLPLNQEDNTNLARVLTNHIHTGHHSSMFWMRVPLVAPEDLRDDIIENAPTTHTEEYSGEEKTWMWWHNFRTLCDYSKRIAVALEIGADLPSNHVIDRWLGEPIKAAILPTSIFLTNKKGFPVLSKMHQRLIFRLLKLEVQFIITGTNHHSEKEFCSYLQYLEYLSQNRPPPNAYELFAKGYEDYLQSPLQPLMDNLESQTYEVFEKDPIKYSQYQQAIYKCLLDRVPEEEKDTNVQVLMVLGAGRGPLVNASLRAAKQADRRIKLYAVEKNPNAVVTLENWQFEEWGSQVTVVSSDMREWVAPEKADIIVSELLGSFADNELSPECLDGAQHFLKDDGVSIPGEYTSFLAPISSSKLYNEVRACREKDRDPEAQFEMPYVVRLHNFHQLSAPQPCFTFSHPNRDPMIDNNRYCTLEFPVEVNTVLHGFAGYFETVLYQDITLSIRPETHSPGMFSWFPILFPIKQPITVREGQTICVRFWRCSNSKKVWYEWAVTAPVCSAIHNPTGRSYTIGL
PRMT5/MEP50 protein complex, sequence (Q9BQA1 whole entry partner): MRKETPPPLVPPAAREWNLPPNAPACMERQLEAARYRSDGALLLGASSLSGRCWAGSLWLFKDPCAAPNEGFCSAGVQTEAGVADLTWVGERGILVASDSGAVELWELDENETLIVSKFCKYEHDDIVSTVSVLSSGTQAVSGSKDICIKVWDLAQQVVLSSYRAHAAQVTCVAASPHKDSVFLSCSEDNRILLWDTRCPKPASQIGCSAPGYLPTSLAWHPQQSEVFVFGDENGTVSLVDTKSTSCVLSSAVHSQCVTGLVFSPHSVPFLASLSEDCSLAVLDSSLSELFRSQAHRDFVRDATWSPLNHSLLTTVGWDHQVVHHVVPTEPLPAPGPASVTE

`O[C@@H]1[C@H](O)[C@@H]([C@H](O)c2ccc(F)c(F)c2)C[C@H]1Nc1ncnc2[nH]ccc12` [Example 27, (1S,2R,3R,5R)-3-[(S)-(3,4-difluorophenyl)(hydroxy)methyl]-5-(7H-pyrrolo[2,3-d]pyrimidin-4-ylamino)cyclopentane-1,2-diol] gave a pIC50 of 6.35.
As for `O[C@@H]1[C@H](O)[C@@H]([C@@H](O)c2ccc(F)c(F)c2)C[C@H]1Nc1ncnc2[nH]ccc12` [Example 28, (1S,2R,3R,5R)-3-[(R)-(3,4-difluorophenyl)(hydroxy)methyl]-5-(7H-pyrrolo[2,3-d]pyrimidin-4-ylamino)cyclopentane-1,2-diol], the figure is 5.24; as for `Cc1ncnc2c1ccn2[C@@H]1C[C@H]([C@H](C)O)[C@@H](O)[C@H]1O` [Example 2, (1S,2R,3R,5R)-3-((S)-1-hydroxyethyl)-5-(4-methyl-7H-pyrrolo[2,3-d]pyrimidin-7-yl)cyclopentane-1,2-diol], 5.08; as for `Cc1ncnc2c1ccn2[C@@H]1C[C@H]([C@@H](CN)c2ccc(F)cc2)[C@@H](O)[C@H]1O` [Example 52, (1S,2R,3R,5R)-3-[(1R)-2-amino-1-(4-fluorophenyl)ethyl]-5-(4-methyl-7H-pyrrolo[2,3-d]pyrimidin-7-yl)cyclopentane-1,2-diol], 6.04.
`CCOc1cc(O[C@H]2C[C@@H](n3ccc4c(C)ncnc43)[C@H](O)[C@@H]2O)c2c(c1F)CCNC2` [Example 199, (1S,2S,3S,5R)-3-((6-ethoxy-5-fluoro-1,2,3,4-tetrahydroisoquinolin-8-yl)oxy)-5-(4-methyl-7H-pyrrolo[2,3-d]pyrimidin-7-yl)cyclopentane-1,2-diol] gave a pIC50 of 7.04. Against the preceding compound, the pIC50 is 1.00 log units higher.
`Cc1ncnc2c1ccn2[C@@H]1C[C@H](Oc2cccc3c2CN(C)CC3)[C@@H](O)[C@H]1O` [Example 83, (1S,2S,3S,5R)-3-((2-methyl-1,2,3,4-tetrahydroisoquinolin-8-yl)oxy)-5-(4-methyl-7H-pyrrolo[2,3-d]pyrimidin-7-yl)cyclopentane-1,2-diol] gave a pIC50 of 7.70. This pIC50 is 0.66 log units higher than that of the compound before.
`Cc1ncnc2c1ccn2[C@@H]1C[C@H](Oc2ccc(F)cc2[C@@H](C)N)[C@@H](O)[C@H]1O` [Example 137, (1S,2S,3S,5R)-3-(2-((R)-1-aminoethyl)-4-fluorophenoxy)-5-(4-methyl-7H-pyrrolo[2,3-d]pyrimidin-7-yl)cyclopentane-1,2-diol] gave a pIC50 of 6.91. Against the preceding compound, the pIC50 is 0.79 log units lower.
For `Nc1ncnc2c1c(F)cn2[C@@H]1C[C@H](Oc2cccc3ccncc23)[C@@H](O)[C@H]1O` [Example 162] the value was 7.38.
With `CO[C@H]1C[C@@H](n2ccc3c(C)ncnc32)[C@H](O)[C@@H]1O` [Example 60, (1S,2S,3S,5R)-3-methoxy-5-(4-methyl-7H-pyrrolo[2,3-d]pyrimidin-7-yl)cyclopentane-1,2-diol], the negative logarithm of the IC50 (pIC50) was under 3.70.
`Cc1ncnc2c1ccn2[C@@H]1C[C@H](Oc2cc(C(F)F)c(F)c3c2CNCC3)[C@@H](O)[C@H]1O` [Example 190, (1S,2S,3S,5R)-3-((6-(difluoromethyl)-5-fluoro-1,2,3,4-tetrahydroisoquinolin-8-yl)oxy)-5-(4-methyl-7H-pyrrolo[2,3-d]pyrimidin-7-yl)cyclopentane-1,2-diol] had a negative logarithm of the IC50 (pIC50) of 9.00.
Turning to `Cc1ncnc2c1ccn2[C@@H]1C[C@H]([C@H](O)c2ccc(F)cc2)[C@@H](O)[C@H]1O` [Example 9, (1S,2R,3R,5R)-3-[(S)-(4-fluorophenyl) (hydroxy)methyl]-5-(4-methyl-7H-pyrrolo[2,3-d]pyrimidin-7-yl)cyclopentane-1,2-diol], the negative logarithm of the IC50 (pIC50) is 7.22.
For `CN1Cc2cccc(O[C@H]3C[C@@H](n4cc(F)c5c(N)ncnc54)[C@H](O)[C@@H]3O)c2C1` [Example 115, (1S,2S,3R,5S)-3-(4-amino-5-fluoro-7H-pyrrolo[2,3-d]pyrimidin-7-yl)-5-[(2-methyl-2,3-dihydro-1H-isoindol-4-yl)oxy]cyclopentane-1,2-diol] the value was 6.83.
The compound `Cc1ncnc2c1ccn2[C@@H]1C[C@H]([C@@H](O)c2ccc(F)c(Cl)c2)[C@@H](O)[C@H]1O` [Example 6, (1S,2R,3R,5R)-3-[(R)-(3-chloro-4-fluorophenyl) (hydroxy)methyl]-5-(4-methyl-7H-pyrrolo[2,3-d]pyrimidin-7-yl)cyclopentane-1,2-diol] had a pIC50 of 6.37.
In the case of `CCOc1nc(O[C@H]2C[C@@H](n3ccc4c(C)ncnc43)[C@H](O)[C@@H]2O)c2c(c1F)CCNC2` [Example 192, (1S,2S,3S,5R)-3-((3-ethoxy-4-fluoro-5,6,7,8-tetrahydro-2,7-naphthyridin-1-yl)oxy)-5-(4-methyl-7H-pyrrolo[2,3-d]pyrimidin-7-yl)cyclopentane-1,2-diol], the pIC50 is 7.26. This pIC50 is 0.89 log units higher than that of the compound before.
Compound `CN(c1ccncn1)[C@@H]1C[C@H]([C@H](O)c2ccc(F)c(F)c2)[C@@H](O)[C@H]1O` [Example 31, (1S,2R,3R,5R)-3-[(S)-(3,4-difluorophenyl)(hydroxy)methyl]-5-[methyl(pyrimidin-4-yl)amino]cyclopentane-1,2-diol] had a pIC50 of 6.33.
For `Cc1ncnc2c1ccn2[C@@H]1C[C@H]([C@@H](O)c2ccc(Cl)c(F)c2)[C@@H](O)[C@H]1O` [Example 161, (1S,2R,3R,5R)-3-((R)-(4-chloro-3-fluorophenyl)(hydroxy)methyl)-5-(4-methyl-7H-pyrrolo[2,3-d]pyrimidin-7-yl)cyclopentane-1,2-diol] the value was 6.70; for `Cc1ncnc2c1ccn2[C@@H]1C[C@H](Oc2nccc3c2CNCC3)[C@@H](O)[C@H]1O` [Example 157, (1S,2S,3R,5S)-3-(4-methyl-7H-pyrrolo[2,3-d]pyrimidin-7-yl)-5-((5,6,7,8-tetrahydro-2,7-naphthyridin-1-yl)oxy)cyclopentane-1,2-diol], 8.40; for `Cc1ncnc(N(C)[C@@H]2C[C@H]([C@H](O)c3ccc(F)c(F)c3)[C@@H](O)[C@H]2O)n1` [Example 46, (1S,2R,3R,5R)-3-[(S)-(3,4-difluorophenyl)(hydroxy)methyl]-5-[methyl(4-methyl-1,3,5-triazin-2-yl)amino]cyclopentane-1,2-diol], 6.53.
For the compound `Cc1ncnc2c1ccn2[C@@H]1C[C@H](Oc2cccc3c2[C@H](N)CC3)[C@@H](O)[C@H]1O` [Example 142, (1S,2S,3S,5R)-3-(((R)-3-amino-2,3-dihydro-1H-inden-4-yl)oxy)-5-(4-methyl-7H-pyrrolo[2,3-d]pyrimidin-7-yl)cyclopentane-1,2-diol], the pIC50 is 7.96.
As for `Cc1ncnc2c1ccn2[C@H]1C[C@@H](Oc2ccc(F)cc2C#N)[C@H](O)[C@@H]1O` [Example 69, 2-(((1R,2R,3R,4S)-2,3-dihydroxy-4-(4-methyl-7H-pyrrolo[2,3-d]pyrimidin-7-yl)cyclopentyl)oxy)-5-fluorobenzonitrile], the figure is under 3.70.
As for `Cc1ncnc2c1ccn2[C@H]1C[C@H](Oc2cccc3c2C(=O)NCC3)[C@@H](O)[C@H]1O` [Example 76, 8-(((1S,2S,3S,4S)-2,3-dihydroxy-4-(4-methyl-7H-pyrrolo[2,3-d]pyrimidin-7-yl)cyclopentyl)oxy)-3,4-dihydroisoquinolin-1(2H)-one], the figure is 3.84.
`Cc1cc(O[C@H]2C[C@@H](n3cc(F)c4c(N)ncnc43)[C@H](O)[C@@H]2O)c2c(c1F)CCNC2` [Example 113, (1S,2S,3R,5S)-3-(4-amino-5-fluoro-7H-pyrrolo[2,3-d]pyrimidin-7-yl)-5-((5-fluoro-6-methyl-1,2,3,4-tetahydroisoquinolin-8-yl)oxy)cyclopentane-1,2-diol] had a pIC50 of 9.00.
As for `Cc1ncnc(N(C)[C@@H]2C[C@H]([C@@H](O)c3ccc(F)c(F)c3)[C@@H](O)[C@H]2O)n1` [Example 47, (1S,2R,3R,5R)-3-[(R)-(3,4-difluorophenyl)(hydroxy)methyl]-5-[methyl(4-methyl-1,3,5-triazin-2-yl)amino]cyclopentane-1,2-diol], the figure is 4.53; as for `Cc1ncnc2c1ccn2[C@@H]1C[C@H]([C@@H](O)c2ccc(F)cc2)[C@@H](O)[C@H]1O` [Example 10, (1S,2R,3R,5R)-3-[(R)-(4-fluorophenyl) (hydroxy)methyl]-5-(4-methyl-7H-pyrrolo[2,3-d]pyrimidin-7-yl)cyclopentane-1,2-diol], 6.03; as for `CN(c1ccnc(N)n1)[C@@H]1C[C@H]([C@@H](O)c2ccc(F)c(F)c2)[C@@H](O)[C@H]1O` [Example 40, (1R,2S,3R,5R)-3-[(2-aminopyrimidin-4-yl)(methyl)amino]-5-[(R)-(3,4 difluorophenyl)(hydroxy)methyl] cyclopentane-1,2-diol], 5.69.
For `CN(c1ncnc(N)n1)[C@@H]1C[C@H]([C@@H](O)c2ccc(F)c(F)c2)[C@@H](O)[C@H]1O` [Example 38, (1R,2S,3R,5R)-3-[(4-amino-1,3,5-triazin-2-yl)(methyl)amino]-5-[(R)-(3,4-difluorophenyl)(hydroxy)methyl]cyclopentane-1,2-diol] the value was 4.80.
For `Cc1cc(O[C@H]2C[C@@H](n3ccc4c(C)ncnc43)[C@H](O)[C@@H]2O)c2c(c1F)CCNC2` [Example 155, (1S,2S,3S,5R)-3-((5-fluoro-6-methyl-1,2,3,4-tetrahydroisoquinolin-8-yl)oxy)-5-(4-methyl-7H-pyrrolo[2,3-d]pyrimidin-7-yl)cyclopentane-1,2-diol] the value was 8.70.
